Patent US10203330B2, “Methods and materials for identifying and treating mammals having lung adenocarcinoma characterized by neuroendocrine differentiation” (Mayo Foundation for Medical Education and Research, priority 2013, dated 2019)
“Also recorded” adds a separate entry of the source.

How the values were obtained:
Type in all cases: cell-based
[1] = system: A549 cells and A549-ASCL1 cells; experiment: Clonogenic number of A549 and A549-ASCL1 cells after cisplatin treatment; settings: ASCL1 over-expressing cells versus cells not expressing ASCL1; 0, 3 or 9 μM cisplatin for 14 days, FIG. 15
[2] = system: ASCL1; experiment: ASCL1 knock down in HCC1833 cells, ASCL1 and RET expression; settings: HCC1833 cells transfected with the construct, FIG. 13 left
Text: Two cell lines are used to confirm the effectiveness of drugs for treating lung adenocarcinoma characterized by neuroendocrine differentiation. The first is the HCC1833 cell line, which was derived from lung AD and has high expression levels of ASCL1 and RET. The second in the A549 cell line which has low endogenous expression of ASCL1 and is stably transfected with ASCL1 (A549-As^+). A549-As^+ captures salient features of ASCL1^+ lung AD from patients, including increased expression of RET. HCC1833 are stably transfected with ASCL1 siRNA to knock down ASCL1 and produce a HCC1833-AsKD cell line. Lowering ASCL1 expression leads to low levels of RET expression.
(§1) The HCC1833 adenocarcinoma cell line expressed high endogenous levels of ASCL1 and RET (FIG. 13, left). […] In addition, STAT3 expression (in JAK/STAT3 pathway) went down.

[3] = system: HCC1833 cells; experiment: Filling the gap scratch assay; settings: HCC1833 cells transfected with ASCL1 shRNA versus wild-type and control vector cells, day 3, FIG. 14; listed as ASCL1-sh2
Text: FIG. 14 contains photographs of cells from a filling the gap scratch assay (see, e.g., Liang et al., Nature Protocols, 2:329-333 (2007)).
as §1

Molecule	remaining clonogenic potential after cisplatin treatment [1]	ASCL1 expression [2]	RET expression [2]	ability to fill the gap (migration capacity) [3]
N.N.[Cl][Pt][Cl] [cisplatin]	higher than in cells that did not express ASCL1			
sh1: a small interfering RNA construct that includes: GCCAACAAGAAGATGAGTAAG (SEQ ID NO: 1) (listed as DNA, chemistry not given here)		reduced ASCL1 expression	reduced	
sh2: a small interfering RNA construct that includes: CAACCGCGTCAAGTTGGTCAA (SEQ ID NO:2) (listed as DNA, chemistry not given here)		reduced ASCL1 expression	reduced	much slower ability to filling the gap; also recorded: did not fill as much of the gap
